Results published in paper PMC8447191, “Peptide Amphiphilic-Based Supramolecular Structures with Anti-HIV-1 Activity” (Bioconjugate Chemistry, 2021).
*1 amine or outer side, *2 acyl side, *3 side chain or, on linkers, in order; H or OH if unused. Where a SMILES comes first, the peptide text is derived from it. Side-chain parts run from the residue outwards. The star is where a group is joined. X1 = CC(C)CCC[C@@H](C)[C@H]1CC[C@H]2[C@@H]3CC=C4C[C@@H](OC(=O)CSC[C@H](N)C(=O)*)CC[C@]4(C)[C@H]3CC[C@]12C; PEG28 = NCCOCCOCCOCCOCCOCCOCCOCCOCCOCCOCCOCCOCCOCCOCCOCCOCCOCCOCCOCCOCCOCCOCCOCCOCCOCCOCCOCCOCCC(=O)O; N(octadecyl)2 = CCCCCCCCCCCCCCCCCCN(CCCCCCCCCCCCCCCCCC)*; Suc = O=C(CCC(=O)[*:2])[*:1]

Legend:
[1] = Visual stability and aspect of POPC vesicles mixed with PAs (SAXS samples); format: physicochemical; details: POPC 20 mM + 2 mM PA, 0.5% DMSO
Method: In Figure 5A,B, we show the spectra corresponding to POPC 20 mM and POPC 20 mM + 2 mM PAs (all of them in the presence of 0.5% DMSO). The band centered at 1.2 nm^–1 and the secondary band at 3.2 nm^–1 were typical of unilamellar vesicles.[35]
The incorporation of PAs had some distinct consequences. The first and more obvious one is the distinction between stable and unstable systems.

[2] = MTT cytotoxicity assay; format: cell-based; details: human, HeLa-env cells, PAs coassembled with 5% FAM, 40-2.3 μM, absorbance 560 nm
Method: The metabolic activity of the cell line, related to the cytotoxic effect of the compounds to be tested, is measured after 24 h using the MTT assay. This assay is based on the metabolic reduction of 3-(4,5-dimethylthiazol-2-yl)-2,5-diphenyl-2H-tetrazolium bromide (MTT), carried out by the mitochondrial enzyme succinate dehydrogenase, in a colored compound of blue color (formazan) that can be monitored by absorbance spectroscopy at 560 nm, allowing determination of the mitochondrial functionality of the treated cells.
The HeLa-env cell line is seeded in 96-well plates with an initial density of 15,000 cells per well in 100 μL of culture medium (Dulbecco’s modified Eagle’s medium, DMEM, with 10% FBS added) and incubated for 24 h at 37 °C and 5% CO2 to allow their adhesion. The cell monolayers are washed with PBS, and then 100 μL of PAs formulations (peptide amphiphiles coassembled with 5% FAM) are added in a concentration range from 40 μM to 2.3 μM. The plates are kept in incubation for further 24 h.
At the end of the incubation time, the cells are incubated for 3 h with 1 mg/mL of MTT, dissolved in culture medium without FBS, to allow the formation of formazan crystals. Subsequently, 100 μL of DMSO are added to wells, stirring the plates for 30 min at room temperature to facilitate the complete dissolution of the crystals. Finally, the absorbance at 560 nm is measured in a microplate reader.
The results are expressed as relative percentage between absorbance of PA formulations against absorbance of its DMSO controls and CC50 and CC25 values are taken from dose–response curves.

[3] = system: HIV-1BaL; format: cell-based; details: HIV-1BaL, TZM-bl cells; peptide 10-0.00061 μM for 1 h at 37 °C before virus; luciferase after 48 h; sigmoid fit; mean of triplicates
Method: HIV-1BaL[52] was provided by the NIH AIDS Research & Reference Reagent Program (http://www.aidsreagent.org/). Viral stock was prepared by passage through activated PBMCs[53] for 11 days.
Luciferase-reporter HeLa cells stably transfected to express CD4 and CCR5; TZM-bl cells[54]−[56] were grown in Dulbecco’s Minimal Essential Medium (DMEM) (Sigma-Aldrich, Inc., St. Louis, MO) containing 10% fetal calf serum (FCS), 2 mM L-glutamine, and antibiotics (100 U of penicillin/mL, 100 μg of streptomycin/mL) at 37 °C in an atmosphere containing 5% CO2.
All inhibition assays in cellular and tissue explants models were performed using a standardized amount of virus culture supernatant normalized for infectivity. TZM-bl cells were incubated with serial dilutions of peptides (from 10 μM to 0.00061 μM) for 1 h at 37 °C, prior to challenge with HIV-1BaL. Luciferase expression (r.l.u. values) was determined after 48 h. Alternatively, tissue explants were incubated with serial dilutions of peptide (from 100 μM to 0.1 μM) for 1 h before virus (10^4 TCID50/mL) was added for 2 h. Explants were then washed four times with PBS to remove unbound virus and drug. Colorectal explants were then transferred onto gelfoam rafts (Welbeck Pharmaceuticals, UK) and cultured for 15 days as described previously[57] […]. Explants were cultured for up to 15 days in the absence of peptide. Approximately 50% of the supernatants were harvested every 2–3 days and explants were re-fed with fresh media. The extent of viral replication in tissue explants was determined by measuring the p24 antigen concentration in supernatants (INNOTEST HIV antigen mAb; Fujirebio Europe, Belgium). The extent of inhibition by each peptide was calculated. The percentage of inhibition was normalized relative to the r.l.u, for TZM-bl cells, or p24, for tissue explants, values obtained for cells or explants cultured in the absence of virus (100% inhibition) and for cells or explants infected with virus in the absence of peptide (0% inhibition). Data are the mean (±SEM) of triplicates. When a dose–response curve was obtained, IC50 and, if possible, IC95 values were calculated from sigmoid curve fits (GraphPad Prism). For all curves, R^2 is >0.7.

[4] = not given; remark: listed apart in the source

| SMILES | stability / aspect of the sample [1] | CC50 at 24 h [2] | IC50 [3] | lamellar characteristic distance | lamellar liquid crystal periodicity [4] |
| --- | --- | --- | --- | --- | --- |
| CC[C@H](C)[C@H](NC(=O)[C@@H](NC(=O)CNC(=O)[C@H](CCCNC(=N)N)NC(=O)[C@H](Cc1c[nH]c2ccccc12)NC(=O)[C@H](Cc1ccccc1)NC(=O)[C@H](CC(=O)O)NC(=O)[C@H](Cc1ccccc1)NC(=O)[C@@H]1CCCN1C(=O)[C@@H](NC(=O)[C@H](CCCCN)NC(=O)[C@H](Cc1c[nH]c2ccccc12)NC(=O)[C@H](CC(C)C)NC(=O)[C@H](Cc1ccc(O)cc1)NC(=O)[C@H](CCC(=O)O)NC(=O)[C@H](CC(C)C)NC(=O)[C@@H](NC(=O)[C@@H](N)Cc1c[nH]c2ccccc12)[C@@H](C)CC)C(C)C)C(C)C)C(=O)N[C@@H](CCCCNC(=O)CCOCCOCCOCCOCCOCCOCCOCCOCCOCCOCCOCCOCCOCCOCCOCCOCCOCCOCCOCCOCCOCCOCCOCCOCCOCCOCCOCCOCCNC(=O)[C@@H](N)CSCC(=O)O[C@H]1CC[C@@]2(C)C(=CC[C@H]3[C@@H]4CC[C@H]([C@H](C)CCCC(C)C)[C@@]4(C)CC[C@@H]32)C1)C(N)=O [C-PAchol] (H-WILEYLWKVPFDFWRGVIK([PEG28-X1])-NH2) | bluish | > 40 µM | 1.71 µM | 4.9 nm | – |
| CCCCCCCCCCCCCCCCCCN(CCCCCCCCCCCCCCCCCC)C(=O)CCC(=O)NCCOCCOCCOCCOCCOCCOCCOCCOCCOCCOCCOCCOCCOCCOCCOCCOCCOCCOCCOCCOCCOCCOCCOCCOCCOCCOCCOCCOCCC(=O)NCCCC[C@H](NC(=O)[C@@H](NC(=O)[C@@H](NC(=O)CNC(=O)[C@H](CCCNC(=N)N)NC(=O)[C@H](Cc1c[nH]c2ccccc12)NC(=O)[C@H](Cc1ccccc1)NC(=O)[C@H](CC(=O)O)NC(=O)[C@H](Cc1ccccc1)NC(=O)[C@@H]1CCCN1C(=O)[C@@H](NC(=O)[C@H](CCCCN)NC(=O)[C@H](Cc1c[nH]c2ccccc12)NC(=O)[C@H](CC(C)C)NC(=O)[C@H](Cc1ccc(O)cc1)NC(=O)[C@H](CCC(=O)O)NC(=O)[C@H](CC(C)C)NC(=O)[C@@H](NC(=O)[C@@H](N)Cc1c[nH]c2ccccc12)[C@@H](C)CC)C(C)C)C(C)C)[C@@H](C)CC)C(N)=O [C-PAdialkyl] (H-WILEYLWKVPFDFWRGVIK([PEG28-Suc-N(octadecyl)2])-NH2) | bluish | 25 µM | – | 5.7 nm | – |
| CC[C@H](C)[C@H](NC(=O)[C@@H](NC(=O)CNC(=O)[C@H](CCCNC(=N)N)NC(=O)[C@H](Cc1c[nH]c2ccccc12)NC(=O)[C@H](Cc1ccccc1)NC(=O)[C@H](CC(=O)O)NC(=O)[C@H](Cc1ccccc1)NC(=O)[C@@H]1CCCN1C(=O)[C@@H](NC(=O)[C@H](CCCCNC(=O)CCOCCOCCOCCOCCOCCOCCOCCOCCOCCOCCOCCOCCOCCOCCOCCOCCOCCOCCOCCOCCOCCOCCOCCOCCOCCOCCOCCOCCNC(=O)[C@@H](N)CSCC(=O)O[C@H]1CC[C@@]2(C)C(=CC[C@H]3[C@@H]4CC[C@H]([C@H](C)CCCC(C)C)[C@@]4(C)CC[C@@H]32)C1)NC(=O)[C@H](Cc1c[nH]c2ccccc12)NC(=O)[C@H](CC(C)C)NC(=O)[C@H](Cc1ccc(O)cc1)NC(=O)[C@H](CCC(=O)O)NC(=O)[C@H](CC(C)C)NC(=O)[C@@H](NC(=O)[C@@H](N)Cc1c[nH]c2ccccc12)[C@@H](C)CC)C(C)C)C(C)C)C(N)=O [K-PAchol] (H-WILEYLWK([PEG28-X1])VPFDFWRGVI-NH2) | bluish | > 40 µM | 0.09 µM | – | 4.8 nm |
